Data reported in PubChem BioAssay AID248 (DTP/NCI, 2004).
“And” between values parts separate entries of the source, which are not always exact repeats. Equal values may be shown once. Toxic doses and inconclusive results are not listed. No stated cut-off is given here; in the data, active means T/C of 150% or more; inactive means T/C below 125%.

Tested on: L1210 leukemia ip in BDF1 mice, survival T/C
Assay: NCI In Vivo Anticancer Drug Screen. Data for tumor model L1210 Leukemia (intraperitoneal) in B6D2F1 (BDF1) mice
Conditions: endpoint: mean survival time, higher = longer survival
Summary of the method: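 Ratio derived from survival: compound-dosed mice over vehicle-dosed mice, all bearing a transplantable tumor.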

[1] = dose: 100.0 mg/kg/injection, schedule: Q04DX002 (ip), vehicle: Klucel (hydroxypropylcellulose) (HPC)
[2] = dose: 200.0 mg/kg/injection, schedule: Q04DX002 (ip), vehicle: Klucel (hydroxypropylcellulose) (HPC)
[3] = dose: 400.0 mg/kg/injection, schedule: Q04DX002 (ip), vehicle: Klucel (hydroxypropylcellulose) (HPC)

Measured: T/C

CCC1(O)CC(OC2CC(N(C)C)C(OC3CC4OC5CC(=O)C(C)OC5OC4C(C)O3)C(C)O2)c2c(cc3c(c2O)C(=O)c2c(O)ccc(O)c2C3=O)C1C(=O)OC (configuration not stated)
inactive: dose: 0.01 mg/kg/injection, schedule: Q01DX Z (ip), vehicle: saline 108 % of control and 88 % of control | dose: 0.16 mg/kg/injection, schedule: Q01DX Z (ip), vehicle: saline 98 % of control and 88 % of control | dose: 0.18 mg/kg/injection, schedule: Q03HX008 (ip), vehicle: saline with Tween-80 94 % of control and 90 % of control | dose: 0.18 mg/kg/injection, schedule: Q03HX024 (ip), vehicle: saline with Tween-80 93 % of control and 102 % of control | dose: 0.25 mg/kg/injection, schedule: Q01DX Z (ip), vehicle: other 103 % of control | dose: 0.25 mg/kg/injection, schedule: Q01DX Z (ip), vehicle: saline 94 % of control and 105 % of control | dose: 0.37 mg/kg/injection, schedule: Q03HX008 (ip), vehicle: saline with Tween-80 94 % of control and 100 % of control | dose: 0.37 mg/kg/injection, schedule: Q03HX024 (ip), vehicle: saline with Tween-80 99 % of control and 102 % of control | dose: 0.5 mg/kg/injection, schedule: Q01DX Z (ip), vehicle: other 112 % of control | dose: 0.5 mg/kg/injection, schedule: Q01DX Z (ip), vehicle: saline 113 % of control and 120 % of control | dose: 0.75 mg/kg/injection, schedule: Q01DX009 (ip), vehicle: saline with Tween-80 98 % of control | dose: 0.75 mg/kg/injection, schedule: Q03HX008 (ip), vehicle: saline with Tween-80 105 % of control and 109 % of control | dose: 0.75 mg/kg/injection, schedule: Q03HX024 (ip), vehicle: saline with Tween-80 105 % of control and 107 % of control | dose: 1.0 mg/kg/injection, schedule: Q01DX015 (ip), vehicle: saline 123 % of control | dose: 1.0 mg/kg/injection, schedule: Q01DX Z (ip), vehicle: other 123 % of control | dose: 1.1 mg/kg/injection, schedule: Q04DX003 (ip), vehicle: saline 107 % of control | dose: 1.25 mg/kg/injection, schedule: Q04DX003 (ip), vehicle: saline 106 % of control | dose: 1.5 mg/kg/injection, schedule: Q01DX001 (ip), vehicle: saline with Tween-80 93 % of control and 95 % of control | dose: 1.5 mg/kg/injection, schedule: Q01DX009 (ip), vehicle: saline with Tween-80 111 % of control | dose: 1.5 mg/kg/injection, schedule: Q01DX Z (ip), vehicle: other 120 % of control | dose: 1.5 mg/kg/injection, schedule: Q03HX008 (ip), vehicle: saline with Tween-80 114 % of control | dose: 1.5 mg/kg/injection, schedule: Q03HX024 (ip), vehicle: saline with Tween-80 98 % of control and 106 % of control | dose: 1.5 mg/kg/injection, schedule: Q04DX003 (ip), vehicle: saline with Tween-80 102 % of control and 105 % of control | dose: 1.7 mg/kg/injection, schedule: Q04DX003 (ip), vehicle: saline 110 % of control | dose: 1.8 mg/kg/injection, schedule: Q01DX015 (ip), vehicle: saline 91 % of control | dose: 2.0 mg/kg/injection, schedule: Q01DX Z (ip), vehicle: other 116 % of control | dose: 2.5 mg/kg/injection, schedule: Q04DX003 (ip), vehicle: saline 111 % of control | dose: 2.6 mg/kg/injection, schedule: Q04DX003 (ip), vehicle: saline 110 % of control | dose: 2.7 mg/kg/injection, schedule: Q01DX001 (ip), vehicle: saline 104 % of control and 120 % of control | dose: 3.0 mg/kg/injection, schedule: Q01DX001 (ip), vehicle: saline with Tween-80 93 % of control and 99 % of control | dose: 3.0 mg/kg/injection, schedule: Q01DX009 (ip), vehicle: saline with Tween-80 100 % of control | dose: 3.0 mg/kg/injection, schedule: Q04DX003 (ip), vehicle: saline with Tween-80 107 % of control and 108 % of control | dose: 4.0 mg/kg/injection, schedule: Q01DX001 (ip), vehicle: saline 114 % of control | dose: 4.0 mg/kg/injection, schedule: Q04DX003 (ip), vehicle: saline 124 % of control | dose: 6.0 mg/kg/injection, schedule: Q01DX001 (ip), vehicle: saline with Tween-80 99 % of control and 106 % of control | dose: 6.0 mg/kg/injection, schedule: Q01DX001 (ip), vehicle: saline 119 % of control | dose: 6.0 mg/kg/injection, schedule: Q04DX003 (ip), vehicle: saline with Tween-80 113 % of control and 115 % of control and 117 % of control | dose: 9.0 mg/kg/injection, schedule: Q01DX001 (ip), vehicle: saline 110 % of control | dose: 9.0 mg/kg/injection, schedule: Q04DX003 (ip), vehicle: saline with Tween-80 97 % of control | dose: 10.0 mg/kg/injection, schedule: Q04DX003 (ip), vehicle: saline 87 % of control | dose: 12.0 mg/kg/injection, schedule: Q01DX001 (ip), vehicle: saline with Tween-80 110 % of control and 122 % of control | dose: 12.0 mg/kg/injection, schedule: Q04DX003 (ip), vehicle: saline with Tween-80 105 % of control

CCOC(=O)C(=Cc1ccccc1)C(=O)OCC
inactive: dose: 100.0 mg/kg/injection, schedule: Q01DX001 (ip), vehicle: saline 96 % of control | [1] 98 % of control | dose: 200.0 mg/kg/injection, schedule: Q01DX001 (ip), vehicle: saline 100 % of control | [2] 95 % of control | dose: 400.0 mg/kg/injection, schedule: Q01DX001 (ip), vehicle: saline 100 % of control | [3] 102 % of control

CC[N+](CC)(CC)Cc1ccccc1
inactive: dose: 6.25 mg/kg/injection, schedule: Q01DX009 (ip), vehicle: Klucel (hydroxypropylcellulose) (HPC) 104 % of control | dose: 6.25 mg/kg/injection, schedule: Q04DX003 (ip), vehicle: saline 113 % of control | dose: 12.5 mg/kg/injection, schedule: Q01DX009 (ip), vehicle: Klucel (hydroxypropylcellulose) (HPC) 107 % of control | dose: 12.5 mg/kg/injection, schedule: Q04DX003 (ip), vehicle: saline 97 % of control | dose: 25.0 mg/kg/injection, schedule: Q01DX001 (ip), vehicle: saline 96 % of control and 100 % of control | dose: 25.0 mg/kg/injection, schedule: Q01DX009 (ip), vehicle: Klucel (hydroxypropylcellulose) (HPC) 98 % of control and 100 % of control | dose: 25.0 mg/kg/injection, schedule: Q04DX003 (ip), vehicle: saline 97 % of control and 100 % of control | dose: 50.0 mg/kg/injection, schedule: Q01DX001 (ip), vehicle: saline 98 % of control and 102 % of control | dose: 50.0 mg/kg/injection, schedule: Q04DX003 (ip), vehicle: saline 98 % of control

Cc1ccc(C(C)C)cc1N1C(=O)C2C(C1=O)C1(Cl)C(Cl)=C(Cl)C2(Cl)C1(Cl)Cl (configuration not stated)
inactive: dose: 100.0 mg/kg/injection, schedule: Q01DX009 (ip), vehicle: Klucel (hydroxypropylcellulose) (HPC) 92 % of control | dose: 200.0 mg/kg/injection, schedule: Q01DX009 (ip), vehicle: Klucel (hydroxypropylcellulose) (HPC) 97 % of control | dose: 400.0 mg/kg/injection, schedule: Q01DX009 (ip), vehicle: Klucel (hydroxypropylcellulose) (HPC) 91 % of control

CCc1c(/C=C2/OC(=O)NC2=O)[nH]c(=S)[nH]c1=O
inactive: dose: 100.0 mg/kg/injection, schedule: Q04DX003 (ip), vehicle: saline with Tween-80 97 % of control | dose: 200.0 mg/kg/injection, schedule: Q04DX003 (ip), vehicle: saline with Tween-80 96 % of control | dose: 400.0 mg/kg/injection, schedule: Q04DX003 (ip), vehicle: saline with Tween-80 96 % of control

O=C(CNC(=O)c1ccccc1)N/N=C/c1ccncc1
inactive: dose: 25.0 mg/kg/injection, schedule: Q01DX009 (ip), vehicle: saline with Tween-80 91 % of control | dose: 50.0 mg/kg/injection, schedule: Q01DX009 (ip), vehicle: saline with Tween-80 93 % of control | dose: 100.0 mg/kg/injection, schedule: Q01DX009 (ip), vehicle: saline with Tween-80 86 % of control

C#CC(C)(O)C(C)(C)C (configuration not stated)
inactive: dose: 100.0 mg/kg/injection, schedule: Q04DX002 (ip), vehicle: saline with Tween-80 91 % of control | dose: 200.0 mg/kg/injection, schedule: Q04DX002 (ip), vehicle: saline with Tween-80 95 % of control | dose: 400.0 mg/kg/injection, schedule: Q04DX002 (ip), vehicle: saline with Tween-80 87 % of control

CCOC(=O)c1cccnc1N(C(=O)c1ccccc1)C(=O)c1ccccc1
inactive: [1] 95 % of control | [2] 95 % of control | [3] 89 % of control
